Experimental data from patent US20050244414A1, “Method to ameliorate osteolysis and metastasis” (XENOTECH INCORPORATED, priority 1995, published 2005).

Tests used:
bone resorption = conditions: cited from earlier work
fetal rat long bone = test: Bone resorption measured as 45Ca release in organ culture; assay type: cell-based; conditions: stimulating factor alone at 10 ng/ml, 120 hours; untreated bones roughly 20%
Procedure: In this example, the percentage of labeled calcium (^45Ca) from fetal rat long bone was used as a measure of bone resorption. To label the bones, pregnant female rats at the 18th day of gestation were injected subcutaneously with 50 μCi of labeled calcium salt. The embryos were harvested the next day, at 19 days gestation, and long bones were obtained from the fetuses. The bones were cultured in standard media for 120 hours in the presence or absence of various putative bone resorption stimulation factors and in the presence and absence of the anti-PTH-rp (1-34) antibody used in Preparation A. The results are shown in FIG. 2.

| Molecule | potency relative to etidronate, ability to inhibit bone resorption (bone resorption) | release of labeled calcium (45Ca) into the medium (fetal rat long bone) [%] |
| --- | --- | --- |
| NCCC(O)(P(=O)(O)O)P(=O)(O)O [pamidronate] | approximately 100 times | – |
| parathyroid hormone-related protein [PTH-rp] | – | ~90 |
| PTH: parathyroid hormone, bone resorption stimulating factor added to culture medium (protein, UniProt P01270 32-115, looked up, Parathyroid hormone, parathyroid hormone, bone resorption stimulating factor added to culture medium) Parathyroid hormone: SVSEIQLMHNLGKHLNSMERVEWLRKKLQDVHNFVALGAPLAPRDAGSQRPRKKEDNVLVESHEKSLGEADKADVNVLTKAKSQ | – | ~90 |
